Assay results published in patent US20240415878A1, “Compositions and Methods for Modulating Mitochondrial Function” (Board of Regents, The University of Texas System, priority 2021, published 2024).

Target: T1, human MRS2 (Homo sapiens, UniProt Q9HD23)
T1 construct: 6xHis (N, cleaved yes); made in house; host or cells: BL21 (DE3) codon+ Escherichia coli, pET-28a
T1 sequence (Q9HD23 58-443): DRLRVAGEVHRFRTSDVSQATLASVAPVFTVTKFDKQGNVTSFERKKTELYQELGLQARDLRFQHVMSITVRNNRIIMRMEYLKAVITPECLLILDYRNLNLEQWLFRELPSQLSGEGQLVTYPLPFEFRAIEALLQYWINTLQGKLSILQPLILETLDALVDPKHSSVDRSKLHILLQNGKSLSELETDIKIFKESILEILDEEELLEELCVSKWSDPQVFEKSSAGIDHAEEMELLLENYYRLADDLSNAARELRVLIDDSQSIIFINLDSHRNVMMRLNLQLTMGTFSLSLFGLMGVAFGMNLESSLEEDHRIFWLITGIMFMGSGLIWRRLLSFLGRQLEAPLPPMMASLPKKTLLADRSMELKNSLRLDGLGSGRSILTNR
Experiment: Dynamic light scattering of purified full-length MRS2 assembly
Type: binding
Conditions: 0.5 mM
Protocol: Next, CPACC was assessed to determine if it directly affects the assembly of purified human MRS2 using dynamic light scattering (DLS). DLS has been used to determine whether the complex stability of proteins/channels is altered by molecular chaperones or drugs (Kitamura et al., 2006). Because of the high sensitivity of DLS to changes in complex sizes, full-length Mrs2 assembly was evaluated in the presence Ca^2+ (5 mM), Mg^2+ (5 mM), Co^2+ (5 mM) or the Mrs2 blocker CPACC (0.5 mM) (FIG. 10K, FIG. 10L, FIG. 10M, FIG. 10N, FIG. 10O). […] A concentration-response assessment confirmed robust decreases in hydrodynamic radii at all CPACC concentrations tested and as low as 10 μM (FIG. 10O).
MRS2 cloning, expression, and purification. The full length human MRS2 (NCBI accession NP_065713.1), identified as MRS258-443 (i.e. residues 58-443) and excluding the mitochondrial targeting sequence, was cloned into pET-28a using Ndel and Xhol restriction sites. […]
Dynamic light scattering (DIS). […] The sample was equilibrated for 5 min at 20° C. before 10 autocorrelation function acquisitions of 5 s each were recorded and averaged. […] The dependence of hydrodynamic size on CPACC concentration was determined using ≈0.5 mg/mL protein supplemented with 0.01 mM, 0.05 mM, 0.1 mM, 0.5 mM or 0.75 mM CPACC, using a similar experimental setup as described above and cumulants analysis.

## [NH2][Co]([NH2])([NH2])([NH2])([NH2])[Cl] [CPACC, chloropentaammine cobalt (III) chloride]
  full-length MRS2 complex sizes (DLS): potently decreased
